# In patent US6682753B2, “Methods for promoting weight gain using GPE-related compounds” (NeuronZ Limited, priority 2001, dated 2004):
# What was measured:
# [1] = Body weight gain over 14 days in rats after unilateral fimbria-fornix lesion with daily intracerebroventricular infusion; assay type: in vivo, male Wistar rats; settings: lesioned rats; daily icv infusion of 2 μL for 14 days: GPE 3 μg/day, IGF-I 20 μg/day, NGF 1 μg/day
# Excerpt: A group of male Wistar rats weighing 174-193 g (University of Auckland, Animal Resources Unit) were divided randomly into the following groups: “control”, “sham”, “vehicle”, “GPE”, “IGF-I”, and “NGF”, depending on the treatment each animal was to undergo. “Control” animals were weighed at the first and last time points and were not treated or handled at any other time. “Sham” animals underwent a sham surgery of anesthesia, incision through the scalp skin, drill hole through the skull, bone wax to seal the drill hole, and sutures for the skin incision. They were then handled daily in mock infusions to mimic handling of animals that received lesions and intracerebroventricular infusions.
# “Vehicle”, “GPE”, “IGF-I”, and “NGF” animals were anaesthetized with 75 mg/Kg sodium pentobarbital and positioned in a stereotaxic apparatus (Kopf Instruments, USA), and underwent unilateral fimbria-fomix lesions to lesion septal cholinergic neurons and chronic cannula implantation into the left lateral cerebral ventricle. Fomix-fimbria lesions were performed by transecting the fimbria-fornix projection using a specialized retractable wire Scouten knife (Kopf Instruments) designed to minimize tissue damage except at the required lesion site. Anaesthetized animals received an incision through their scalp skin and a small drill hole was made in the skull at the stereotaxic coordinates anterior-posterior (AP) axis−1.0 mm from the bregma and medial-lateral (ML) axis+2.5 mm from midline (left side), from an atlas of the rat brain (Paxinos et al. (1986), “The rat brain in stereotaxic coordinates”, Academic Press, London). The knife was lowered into the brain through the drill hole to the coordinate+6.0 mm ventral to the skull on the dorsal-ventral (DV) axis. The knife blade was then extended 2.5 mm toward midline at an angle of 30° caudal to the bregma. The knife, with blade extended, was then raised 4.5 mm dorsally to axotomize the fimbria-fomix fibres. The blade was then retracted, the knife lowered 4.5 mm to its original coordinate, and the process was repeated. […]
# [2] = administered into the brain following transient ischemia to the forebrain, adult rats; cited from earlier work
# [3] = infused in the brain of adult rats after partial or full lesions (e.g. partial fimbria-fornix transection); cited from earlier work
# [4] = Weight gain in human patient suffering from a head injury, central administration (Examples 2-4); assay type: in vivo; settings: 14 days
# Method: GPE in a dose of 10 μg/Kg/day is administered via lateral cerebroventricular injection into the brain of a human patient suffering from a head injury to promote weight gain to normal levels. Alternatively, a GPE analog is administered. Treatment is commenced as soon as possible after the head injury and then for 14 days thereafter.
# A GPE analog in a dose of 20 μg/Kg/day is administered via focal injection into the lateral cerebral ventricle of a human patient suffering from a head injury to promote weight gain to normal levels. Alternatively, GPE is administered. Treatment is commenced as soon as possible after the head injury and then for 14 days thereafter.
# GPE in a dose of 5 μg/Kg/day is administered via a surgically inserted shunt into the lateral cerebral ventricle of a human patient suffering from a head injury to promote weight gain to normal levels. Alternatively, a GPE analog is administered. Treatment is commenced as soon as possible after the head injury and then for 14 days thereafter.
Molecule,weight gain over the 14 days [1],effect on body weight gain [3],further results
IGF-I: insulin-like growth factor I (IGF-I),minimal weight gain,–,effect on body weight [2]: cause weight gain
NGF: Nerve growth factor (NGF),no weight gain,either decrease normal body weight gain or cause weight loss,–
"NCC(=O)N1CCC[C@H]1C(=O)N[C@@H](CCC(=O)O)C(=O)O [GPE, glycyl-L-prolyl-L-glutamic acid]",the normally expected weight gain occurred,–,weight gain in patient ([4]; 5 μg/Kg/day via surgically inserted shunt into the lateral cerebral ventricle): Normal weight gain is promoted; weight gain in patient ([4]; 10 μg/Kg/day via lateral cerebroventricular injection): Normal weight gain is promoted; weight gain in patient ([4]; 20 μg/Kg/day via focal injection into the lateral cerebral ventricle): Normal weight gain is promoted
bFGF: basic fibroblast growth factor (bFGF),–,either decrease normal body weight gain or cause weight loss,–
"BDNF: brain-derived neurotrophic factor (BDNF) (protein, UniProt P23560 19-247, looked up) Neurotrophic factor BDNF …: APMKEANIRGQGGLAYPGVRTHGTLESVNGPKAGSRGLTSLADTFEHVIEELLDEDQKVRPNEENNKDADLYTSRVMLSSQVPLEPPLLFLLEEYKNYLDAANMSMRVRRHSDPARRGELSVCDSISEWVTAADKKTAVDMSGGTVTVLEKVPVSKGQLKQYFYETKCNPMGYTKEGCRGIDKRHWNSQCRTTQSYVRALTMDSKKRIGWRFIRIDTSCVCTLTIKRGR",–,either decrease normal body weight gain or cause weight loss,–
"GDNF: glial-derived neurotrophic factor (GDNF) (protein, UniProt P39905 78-211, looked up) Glial cell line-derived …: SPDKQMAVLPRRERNRQAAAANPENSRGKGRRGQRGKNRGCVLTAIHLNVTDLGLGYETKEELIFRYCSGSCDAAETTYDKILKNLSRNRRLVSDKVGQACCRPIAFDDDLSFLDDNLVYHILRKHSAKRCGCI",–,either decrease normal body weight gain or cause weight loss,–
